Data on 5 substances can be found in patent US20040229268A1, “Method and kit for identifying antibiotic-resistant microorganisms” (priority 2003, published 2004).

For data set [1], the system named is mecA gene; Staphylococcus ribosomal nucleic acids. Kind of data set: HPA after thermal lysis, base hydrolysis and neutralization (Examples 5-7). It counts as binding, S. aureus. How it is done:
The cultured S. aureus specimens were lysed by suspending 1 μl loops of bacteria in 150 μl of lysis buffer and then incubating at 105° C. for 15 minutes. Next, 100 μl of 2 N LiOH base solution was added and RNA was hydrolyzed by incubating the mixtures at 60° C. for 15 minutes. Hydrolyzed samples were neutralized by the addition of 100 μl of a neutralizing reagent that included 2 N HCl and 100 mM succinate buffer (pH 5.5 prior to acidification with HCl). Specifically hybridized probe was detected by standard HPA, essentially as described in Example 1.
Specimens (1 μl loops of bacteria) were treated and tested essentially as described in Example 5 with the following differences: incubation for lysis was for 15 minutes and incubation for hybridization was for 45 minutes for samples shown in Tables 7-8, while incubation for lysis was for 10 minutes and incubation for hybridization was for 20 minutes for samples shown in Table 9. All of the base-treated solutions were neutralized by the addition of 250 μl of 0.8 N HCl containing 100 mM succinate.
2′-methoxy analogs of the AE-labeled DNA probes were prepared by standard phosphoramidite synthesis using 2′ methoxy phosphoramidite analogs. Additional linker positions, which are indicated by parentheses in Table 11, for probe 2 were also prepared for testing. Deoxy probes and 2′-methoxy probe analogs were tested essentially as described in Example 5, except as noted below. Probes synthesized using 2′-methoxy nucleotide analogs are particularly identified by the “MeO” designations. Brief summaries of the procedures used to obtain the results are appended to the tables.

Data set [2] concerns mecA gene; Staphylococcus spp. and S. aureus ribosomal nucleic acids. Description: HPA probe panel on clinical and ATCC isolates (Examples 8-9). Type of data set: binding. The protocol: Oxacillin MIC results were provided by an outside laboratory. The GP Probe results were determined as described in Example 8.
[3] abbreviates: Table 8, lysis 15 minutes, hybridization 45 minutes.
Setting [4] is: Table 9, lysis 10 minutes, hybridization 20 minutes.
Where [5] appears, read: Table 11, neutralize 250 μl 0.8 N HCl containing 100 mM succinate, hybridize 45 minutes at 60° C.
Where [6] appears, read: Table 7, lysis 15 minutes, hybridization 45 minutes.
[7] abbreviates: Table 10, neutralize 100 μl 2 N HCl containing 200 mM succinate, hybridize 45 minutes at 60° C.

Consider “CCGAACTGAGAACAACTTTATGGGATTTGC (chemistry not given here) [Staphylococcus spp. probe with helpers]”, for which the RLU in data set [1] (Table 6, GP18(Neg), MSSA ATCC #12600) is given as 170,434 RLU; in data set [1] (Table 6, GP1214(Neg), MSSA ATCC #29247) it was 234,286 RLU; in data set [1] (Table 6, GP1217(Pos), MRSA ATCC #33591), 225,772 RLU; in data set [1] (Table 6, GP1218(Pos), MRSA ATCC #43866), 203,488 RLU. The “HPA Results (# positive for indicated probes)” value in data set [2] (ATCC MRSA, 1 isolate, Oxacillin MIC 16 μg/ml) stood at 1; in data set [2] (ATCC MSSA, 1 isolate, Oxacillin MIC 1 μg/ml), 1; in data set [2] (ATCC MSSA, 4 isolates, Oxacillin MIC 0.5 μg/ml), 4; in data set [2] (ATCC MSSA, 6 isolates, Oxacillin MIC ≦0.25 μg/ml) it was 6; in data set [2] (Clinical MRSA, 8 isolates, Oxacillin MIC 16 μg/ml), 8; in data set [2] (Clinical MRSA, 107 isolates, Oxacillin MIC >16 μg/ml), 107. In addition, the “HPA Results (# positive for indicated probes)” value in data set [2] (Clinical MSSA, 28 isolates, Oxacillin MIC 0.5 μg/ml) is recorded as 28; in data set [2] (Clinical MSSA, 99 isolates, Oxacillin MIC ≦0.25 μg/ml), 99; in data set [2] (S. epidermidis, 1 isolate, Oxacillin MIC >16 μg/ml), 1; in data set [2] (S. epidermidis, 2 isolates, Oxacillin MIC ≦0.25 μg/ml) it was 2; in data set [2] (S. hemoliticus, 1 isolate, Oxacillin MIC ≦0.25 μg/ml) it was 1; in data set [2] (S. hominis, 1 isolate, Oxacillin MIC ≦0.25 μg/ml) it was 1. For the same substance, the “HPA Results (# positive for indicated probes)” value in data set [2] (S. hyicus-hyicus, 1 isolate, Oxacillin MIC ≦0.25 μg/ml) turned out to be 1; in data set [2] (S. intermedius, 1 isolate, Oxacillin MIC ≦0.25 μg/ml) it was 1; in data set [2] (S. saprophyticus, 1 isolate, Oxacillin MIC 0.5 μg/ml), 1; in data set [2] (S. simulans, 1 isolate, Oxacillin MIC ≦0.25 μg/ml) it was 1; in data set [2] (S. warneri, 1 isolate, Oxacillin MIC ≦0.25 μg/ml), 1. The “HPA Results (RLU)” value in data set [2] (GP21 (S. aureus, mecA(−), MSSA)) is listed as 373232 RLU; in data set [2] (GP22 (CoNS, mecA(+))), 225141 RLU; in data set [2] (GP23 (S. aureus, mecA(−))), 301657 RLU; in data set [2] (GP24 (S. aureus, mecA(+))) it was 306718 RLU; in data set [2] (GP25 (S. aureus, mecA(+))), 456426 RLU; in data set [2] (GP26 (S. aureus, mecA(−))), 262267 RLU. For the same substance, the “HPA Results (RLU)” value in data set [2] (GP27 (CoNS, mecA(−))) turned out to be 182304 RLU; in data set [2] (GP28 (S. aureus, mecA(−))), 246636 RLU; in data set [2] (GP29 (S. aureus, mecA(+))), 388748 RLU; in data set [2] (GP30 (S. aureus, mecA(−))) it was 440128 RLU; in data set [2] (GP31 (S. aureus, mecA(+))), 349207 RLU; in data set [2] (GP32 (S. aureus, mecA(−))) it was 432041 RLU. Further, the “HPA Results (RLU)” value in data set [2] (GP33 (S. aureus, mecA(+))) was determined as 160830 RLU; in data set [2] (GP34 (S. aureus, mecA(−))), 634079 RLU; in data set [2] (GP35 (S. aureus, mecA(+))), 543089 RLU; in data set [2] (GP36 (S. aureus, mecA(−))), 370898 RLU; in data set [2] (GP37 (S. aureus, mecA(+))) it was 397722 RLU; in data set [2] (GP38 (S. aureus, mecA(+))) it was 387613 RLU. The “HPA Results (RLU)” value came out at 280358 RLU in data set [2] (GP39 (S. aureus, mecA(−))); 292407 RLU in data set [2] (GP40 (S. aureus, mecA(−))); 1775 RLU in data set [2] (Neg Control (Hybridization Buffer)); 170530 RLU in data set [2] (Pos Control GP1217 (S. aureus, mecA(+), MRSA)).
For the substance “GCGATAATGGTGAAGTAGAAATGACTGAACGTCCG (DNA, backbone and methylation of C not given here; acridinium ester label on internal non-nucleotide linker; listed as Staphylococcus aureus) [probe 3]”, in data set [1] (setting [3]), the “GP18(Neg) RLU” value was 371 RLU, the “GP1217(Pos) RLU” value worked out at 36123 RLU and the “Probe alone Avg RLU” value was found to be 445 RLU. In data set [1] (setting [4]), the “GP1217(Pos) RLU” value is 46566 RLU and the “Probe alone Avg RLU” value came out at 684 RLU. Moreover, in data set [1] (setting [5]), the “GP1214(Neg) RLU” value is 1303 RLU, the “GP1217(Pos) RLU” value is listed as 36993 RLU and the “Probe alone Avg RLU” value stood at 1098 RLU.
On to “GCTCCAACATGAAGATGGCTATCGTGTCACAATCG (DNA, backbone and methylation of C not given here; acridinium ester label on internal non-nucleotide linker; listed as Staphylococcus aureus) [probe 5]”, for which, in data set [1] (setting [6]), the “GP18(Neg) RLU” value came out at 1250 RLU, the “GP1217(Pos) RLU” value was 37472 RLU and the “Probe alone Avg RLU” value stood at 4088 RLU. For the same substance, in data set [1] (setting [4]), the “GP1217(Pos) RLU” value worked out at 42816 RLU and the “Probe alone Avg RLU” value turned out to be 2823 RLU.
Consider “MeO-probe 1: 2′-methoxy analog of AE-labeled probe 1 (SEQ ID NO:1) (DNA GGTATGTGGAAGTTAGATTGGGATCATAGCG; all 2'-O-methyl, backbone and T or U not given here; acridinium ester label on internal non-nucleotide linker; listed as Staphylococcus aureus)”, for which, in data set [1] (setting [7]), the “GP1214(Neg) RLU” value was determined as 2308 RLU, the “GP1217(Pos) RLU” value was 62594 RLU and the “Probe alone Avg RLU” value is recorded as 1879 RLU. In addition, in data set [1] (setting [5]), the “GP1214(Neg) RLU” value is listed as 975 RLU, the “GP1217(Pos) RLU” value is 33659 RLU and the “Probe alone Avg RLU” value was 779 RLU.
Take “MeO-probe 2: 2′-methoxy analog of AE-labeled probe 2 (SEQ ID NO:2); linker position not printed in Table 10 (DNA CGCTATGATCCCAATCTAACTTCCACATACC; all 2'-O-methyl, backbone and T or U not given here; acridinium ester label on internal non-nucleotide linker; listed as Staphylococcus aureus)”: in data set [1] (setting [7]), the “GP1214(Neg) RLU” value is recorded as 5242 RLU, the “GP1217(Pos) RLU” value was 69687 RLU and the “Probe alone Avg RLU” value stood at 2378 RLU.
